“Also recorded” adds a separate entry of the source.
How the values were obtained:
OVCAR-5 cells = assay: Cell viability assay (SRB): sensitization of OVCAR-5 cells to FK866; assay type: cell-based; conditions: for combination index (CI) with FK866: 0.3 µM nicotinic acid in medium; for cell viability, single-agent treatment: 72 h, 100 nM FK866 alone or 1 mM 2-HNA alone
From the text: The first assay that we performed to test the putative NAPRT inhibitors was based on the principle that NAPRT-expressing OVCAR-5 cells are resistant to FK866 whereas the simultaneous chemical inhibition of NAPRT with 2-HNA renders the cells sensitive to the NAMPT inhibitor due to the cooperation between FK866 and 2-HNA in depleting the intracellular NAD pool. […] Thus, 2-HNA was used throughout the study as a positive control in our cell viability assay and any test compound resembling its activity was considered a potential NAPRT inhibitor. It is worth mentioning that, to reflect the physiological contribution of the Preiss–Handler pathway to NAD biosynthesis, all cell-based assays that are presented in this study were performed under a nicotinic acid concentration of 0.3 µM in the cell culture medium (Figure S1).
We decided to use combination index (CI) as a measure to determine the degree of interaction between FK866 and the test compounds i.e., to identify potential new NAPRT inhibitors. A CI < 1 indicates a synergistic interaction between the test compound and FK866 in decreasing cell viability. A CI = 1 and a CI > 1 are indicative of an additive and of an antagonistic effect, respectively.
A total of 3 × 10^3 OVCAR-5 cells/well were plated in 96-well plates in the regular culture medium. 24 h later the cell medium was removed and the cells were subsequently incubated either in the regular medium that was supplemented with 0.3 µM nicotinic acid (control wells) or in the treatment medium which contained 0.3 µM nicotinic acid and combinations of 100 nM FK866, 1 mM 2-HNA, and 100 µM of test compounds. Each condition was performed in triplicate and the cells remained under treatment for a total of 72 h at 37 °C. Thereafter, the culture plates were fixed with 10% trichloroacetic acid at 4 °C for 20 min, washed with cold water, and dried overnight. The plates were stained with 0.04% sulforhodamine B (SRB) in 1% acetic acid, washed four times with 1% acetic acid to remove the unbound dye, and dried overnight. Lastly, Trizma®-base 10 mM was added to the plates and cell viability was quantified by absorbance measurements on a Tecan Infinite® 200 PRO instrument.
To quantify the extent of the interaction between FK866 and the putative NAPRT inhibitors or 2-HNA, we applied the combination index (CI) equation that is depicted below:(1) CI=mortality % A+mortality % B /mortality % A+B where: ‘A’ refers to the treatment of cells with FK866 100 nM; ‘B’ refers to the treatment of cells with the test compound 100 µM or 2-HNA 1 mM; ‘A + B’ refers to the coadministration of FK866 100 nM and the test compound at 100 µM or 2-HNA 1 mM. A synergistic interaction is evidenced by CI < 1, additive effect produces CI close to 1, whereas CI > 1 corresponds to antagonistic effect.

[1] = tested on: intracellular NAD+ levels in OVCAR-5 cells; assay: Intracellular NAD+ quantification (enzyme cycling assay); assay type: cell-based; conditions: for interaction with FK866 in NAD+ reduction / drop in NAD+ levels: test compound 100 µM + 30 nM FK866, 20 h
Procedure: The assay that was performed on OVCAR-5 cell viability led to a set of potential NAPRT inhibitors, namely IM 29, IM 38, IM 43, IM 49, MMB-128, MMB-131, MMB-268, and MMB-312. In order to confirm that the cited compounds sensitized OVCAR-5 cells to the NAMPT inhibitor FK866 by interfering with NAD biosynthesis, we quantified the intracellular NAD^+ levels in OVCAR-5 cells after 20-h treatments with these compounds with or without FK866.
Figure 3 A subset of test compounds cooperates synergistically with FK866 in decreasing intracellular NAD^+ levels in OVCAR-5 cells. The compounds were administered to cells alone or in combination with FK866 for 20 h. Quantification of NAD^+ was performed via an enzyme cycling assay and normalized to cell lysate protein content. The results are the mean ± SD of two technical replicates with two biological replicates each. *, p < 0.05; **, p < 0.01; ***, p < 0.001 vs. the respective control, i.e., FK866-untreated control for the test compounds that were administered alone to cells, and FK866-treated control for the combinations of test compound and FK866; §, p < 0.05 versus FK866-untreated, control cells.
A total of 1 × 10^5 OVCAR-5 cells/well were plated in 24-well plates in the regular culture medium. 24 h later the cell medium was removed and the cells were cultured either in the regular medium that was supplemented with 0.3 µM nicotinic acid (control wells) or in the treatment medium (regular medium with 0.3 µM nicotinic acid and combinations of 30 nM FK866, 1 mM 2-HNA and 100 µM of test compounds). Each condition was performed in duplicate and the cells remained under treatment for a total of 20 h at 37 °C. Thereafter, the cell medium was removed and the cells were harvested and lysed with 0.6 M perchloric acid (PCA). Samples in PCA were neutralized by diluting the extracts in 100 mM sodium phosphate buffer (pH 8) and the total intracellular NAD^+ content was determined with a sensitive enzyme cycling assay that exploits the use of alcohol dehydrogenase. The obtained NAD^+ values were normalized to cell lysate protein content that was quantified by the Bradford method.

recombinant hNAPRT [2] = target: T1, recombinant hNAPRT (Homo sapiens, UniProt Q6XQN6); assay: hNAPRT inhibition assay (HPLC of NA and NAMN); assay type: biochemical; conditions: for IC50: 100 µM nicotinic acid, 200 µM PRPP, 45 min at 37 °C, formation of NAMN
T1 construct: His-tag (C); made in house; host or cells: E. coli
T1 sequence (Q6XQN6 1-538): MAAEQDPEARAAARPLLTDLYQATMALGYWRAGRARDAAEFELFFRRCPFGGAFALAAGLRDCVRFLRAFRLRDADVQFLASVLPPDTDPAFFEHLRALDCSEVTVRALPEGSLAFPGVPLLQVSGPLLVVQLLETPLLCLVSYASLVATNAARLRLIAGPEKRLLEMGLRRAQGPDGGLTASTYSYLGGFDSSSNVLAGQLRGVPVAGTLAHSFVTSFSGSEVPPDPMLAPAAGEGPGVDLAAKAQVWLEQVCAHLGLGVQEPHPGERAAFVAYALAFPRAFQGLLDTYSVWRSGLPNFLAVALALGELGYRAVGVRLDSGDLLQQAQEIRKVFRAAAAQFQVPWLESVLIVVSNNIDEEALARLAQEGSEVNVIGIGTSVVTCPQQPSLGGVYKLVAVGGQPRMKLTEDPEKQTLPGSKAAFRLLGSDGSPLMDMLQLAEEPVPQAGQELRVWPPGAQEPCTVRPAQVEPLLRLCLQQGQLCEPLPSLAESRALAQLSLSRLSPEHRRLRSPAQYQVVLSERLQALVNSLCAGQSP
Procedure: hNAPRT was expressed in E. coli with an N-terminal His-tag and purified as described above. The enzymatic reactions were carried out at 37 °C in standard reaction mixtures containing 50 mM Tris-HCl, pH 7.4, 10 mM KCl, 2 mM MgCl2, 100 µM nicotinic acid, 200 µM PRPP, 0.1 mg/mL purified recombinant hNAPRT, and the test compound at five different concentrations ranging from 20 µM to 1000 µM.
Blank mixtures without compounds but with equal amounts of DMSO were set in parallel and their rates fixed as 100% activity. NAPRT was pre-incubated with the compounds for 5 min and reactions were started by the addition of the enzyme substrates and stopped after 45 min of incubation by heating to 85 °C for 3 min. Following centrifugation of the reaction mix, the supernatant was analyzed by HPLC by injection into a reverse-phase column (XTerra MS C18 Column, 125Å, 5 μm, 4.6 × 150 mm, Waters). The eluted species were monitored at 260 nm and the peaks of nicotinic acid and nicotinic acid mononucleotide were quantified with reference to standard curves. The percentage of nicotinic acid conversion was calculated for each reaction and the IC50 values for the active compounds were determined with GraphPad Prism 8 software (GraphPad Software, S. Diego, CA, USA).

recombinant hNAPRT [3] = target: T1, recombinant hNAPRT; assay: hNAPRT melting temperature determination (DSF); assay type: binding; conditions: 100 μM inhibitor, 5 μM hNAPRT
Procedure: With the purpose to provide support to the results that were obtained in the enzymatic activity assay, the ability of the new hNAPRT inhibitors to stabilize the protein through binding was evaluated via the measurement of the hNAPRT melting temperature in the presence or absence of the inhibitors at a 100 μM concentration. The resulting Tm shifts are depicted in Figure 5. […] A plausible explanation for this outcome is that larger compounds are more likely to establish a higher number of interactions and thus result in greater stabilization of a given protein.
Figure 5 NAPRT inhibitors MMB-128 and MMB-131 directly engage recombinant hNAPRT. Differential scanning fluorimetry (DSF) was used to determine the thermal stabilization of hNAPRT protein upon inhibitor binding. Recombinant hNAPRT protein was exposed to 100 μM hNAPRT inhibitors over a defined temperature gradient and the melting temperature Tm was calculated for each compound. The data are shown as means ± standard error of the means (SEM) of two technical replicates with three biological replicates each. * p < 0.05; unpaired t-test.
The melting temperature ™ of hNAPRT was determined through the differential scanning fluorimetry (DSF) technique. Triplicates of 100 μM of each test compound and DMSO were added to a 96-well clear bottom BioRad PCR plate. Subsequently, DSF protein buffer, containing 5 μM of recombinant hNAPRT protein and 5X SPYRO® Orange (S5692, Sigma-Aldrich) in 20 mM HEPES pH 7.5, 100 mM NaCl, 10 mM Mg-acetate, and 1 mM DTT was added. The plate was sealed and exposed to a temperature gradient from 20 to 95 °C in a BioRad CFX96 Real-Time System. The fluorescence for each temperature increment was measured at 465–580 nm with an excitation wavelength of 465 nm. The DSF templates that were provided by Niesen et al. were used for data analysis followed by GraphPad Prism 8 for statistical analysis of the generated data.

[4] = Preparation of 50 mM stock solution in DMSO; assay type: physicochemical
Procedure: As noted in the methodology section, a 50 mM stock solution in DMSO was prepared for each compound.
Compounds were obtained in mg quantity and subsequently dissolved in DMSO to prepare a 50 mM stock solution. The purity of all compounds was > 95%, as declared by vendors or collaborators.

[5] = test compound 100 µM + 100 nM FK866, 72 h

| Structure (SMILES) | cytotoxicity in combination with FK866 (OVCAR-5 cells; [5]) | IC50 (recombinant hNAPRT [2]) | Tm shift of hNAPRT (recombinant hNAPRT [3]) | drop in NAD+ levels [1] | further results |
| --- | --- | --- | --- | --- | --- |
| O=C(Cn1c(=O)sc2ccccc21)Nc1cccc(C(=O)O)c1 [IM 49] | less pronounced cytotoxicity | 232 µM | remained unchanged |  | interaction with FK866 in NAD+ reduction [1]: lower degree of synergism; effect on intracellular NAD+ levels, compound alone ([1]; test compound 100 µM alone, 20 h): strongly reduced |
| CC(Oc1ccccc1Cl)C(=O)Nc1cccc(C(=O)O)c1 (stereo not drawn) [IM 38] | less pronounced cytotoxicity | 265 µM | remained unchanged | 42.9–56.4% |  |
| O=C(O)c1cccnc1O [Compound 2-HNA, 2-hydroxynicotinic acid, reference compound] |  |  |  |  | cytotoxicity of co-treatment with FK866 (OVCAR-5 cells; 1 mM 2-HNA + 100 nM FK866, 72 h): pronounced cell death; also recorded: marked cytotoxicity; combination index (CI) with FK866 (OVCAR-5 cells; 2-HNA 1 mM + 100 nM FK866, 72 h): 0.08; cell viability, single-agent treatment (OVCAR-5 cells): withstood; drop in intracellular NAD+ concentration ([1]; 1 mM 2-HNA + 30 nM FK866, 20 h): 86% |
| COc1cc(OC)cc(-c2cn(CC3NCC(O)C3O)nn2)c1 (stereo not drawn) [MMB-312] | less pronounced cytotoxicity |  |  |  | combination index (CI) with FK866 (OVCAR-5 cells; test compound 100 µM + 100 nM FK866, 72 h, CI < 1 synergistic): 0.12; interaction with FK866 in NAD+ reduction [1]: additive effects |
| Cc1cc(C(=O)O)nc(N)n1 [IM 28] |  |  |  |  | solubility in DMSO [4]: could not be solubilized |
| O=C(/C=C/c1cccnc1)NCCCCC1CCN(C(=O)c2ccccc2)CC1 [FK866, reference compound] |  |  |  |  | cell viability, single-agent treatment (OVCAR-5 cells): withstood; decrease of intracellular NAD+ levels ([1]; 30 nM FK866 alone, 20 h): 24% |
| OC1CNC(Cn2cc(-c3cc(C(F)(F)F)cc(C(F)(F)F)c3)nn2)C1O (stereo not drawn) [MMB-268] | high cytotoxicity |  |  | 42.9–56.4% | inhibition of hNAPRT (recombinant hNAPRT [2]; data not shown): negligible inhibition |
| CC(C)(C)C(=O)OCCCn1cc(CCCN2CC(O)C(O)C2Cn2cc(-c3ccccc3)nn2)nn1 (stereo not drawn) [MMB-131] | less pronounced cytotoxicity | 242 µM | approximately 0.5 °C | 42.9–56.4% |  |
| CC(C)(C)C(=O)OCCCn1cc(CCCN2CC(O)C(O)C2CNC(=O)c2ccccc2)nn1 (stereo not drawn) [MMB-128] | high cytotoxicity |  | approximately 0.5 °C | 42.9–56.4% |  |
| COc1ccc2cc(C=O)c(O)nc2c1 [IM 43] | high cytotoxicity |  |  |  | interaction with FK866 in NAD+ reduction [1]: additive effects |
| NCc1cc2c(cc1Cl)OCO2 [IM 29] | high cytotoxicity | 160 µM | remained unchanged | 42.9–56.4% | potentiation of the effect of FK866 in reducing intracellular NAD levels ([1]; combination with FK866): more than two-fold |

— paper PMC9320560, “Structure-Based Identification and Biological Characterization of New NAPRT Inhibitors” (Pharmaceuticals, 2022)
